Source: patent US10501421B1, “Substituted benzimidazoles as modulators of Ras signaling” (VANDERBILT UNIVERSITY, priority 2017, dated 2019)
Counter-ions that a name gives are not always drawn.

What was measured:
[1] = target: Ras GEF SOS (Son of Sevenless) (Homo sapiens, UniProt Q07889); test: SOS-mediated nucleotide exchange on Ras (BODIPY-GDP fluorescence); format: biochemical; settings: SOS-mediated exchange of BODIPY-GDP for GTP on Ras
Outline: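 Exchange rates were taken from single-exponential fits of the fluorescence time course as BODIPY-GDP on Ras was replaced by GTP. Compound went in first, then GTP and SOS. Mean rates plotted against concentration gave EC50 by four-parameter dose-response fitting.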

Son of Sevenless (SOS) = target: T1, Son of Sevenless (SOS) (Homo sapiens, UniProt Q07889); test: Binding to SOS, fluorescence polarization anisotropy (FPA) probe displacement; settings: displacement of FITC-conjugated probe (Example 285), affinity calculated from IC50
T1 sequence (Q07889 564-1049 limits assumed): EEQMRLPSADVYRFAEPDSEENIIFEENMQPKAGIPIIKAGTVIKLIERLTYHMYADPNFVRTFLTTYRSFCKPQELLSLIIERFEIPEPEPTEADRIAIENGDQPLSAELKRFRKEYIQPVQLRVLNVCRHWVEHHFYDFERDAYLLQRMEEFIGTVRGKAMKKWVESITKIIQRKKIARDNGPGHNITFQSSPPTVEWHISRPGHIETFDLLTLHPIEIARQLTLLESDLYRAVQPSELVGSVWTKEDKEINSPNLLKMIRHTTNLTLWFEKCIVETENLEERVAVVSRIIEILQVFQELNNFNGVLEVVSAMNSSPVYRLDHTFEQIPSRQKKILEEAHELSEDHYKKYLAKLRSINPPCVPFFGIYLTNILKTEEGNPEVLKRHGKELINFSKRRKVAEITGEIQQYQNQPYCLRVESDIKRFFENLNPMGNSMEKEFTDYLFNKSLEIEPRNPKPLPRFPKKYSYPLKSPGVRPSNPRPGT
Outline: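 Test compounds were titrated against SOS pre-bound to a fluorescein-labelled probe, with anisotropy plotted versus compound concentration. Binding affinities were derived from IC50 values obtained by four-parameter dose-response fitting.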

Ras GEF SOS (Son of Sevenless), sequence (P01112 1-166 partner limits assumed, one chain of several): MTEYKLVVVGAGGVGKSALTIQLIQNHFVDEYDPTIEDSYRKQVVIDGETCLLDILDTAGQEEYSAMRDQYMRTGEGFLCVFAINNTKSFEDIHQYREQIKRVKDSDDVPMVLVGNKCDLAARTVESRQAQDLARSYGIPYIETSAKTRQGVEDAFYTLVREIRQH

SMILES	EC50 [1] [µM]	Ki (Son of Sevenless (SOS)) [µM]
Nc1ccccc1-c1cccc2c1nc(N1CCNCC1)n2Cc1ccc(F)c(Cl)c1 [Example 83, 2-(1-(3-chloro-4-fluorobenzyl)-2-(piperazin-1-yl)-1H-benzo[d]imidazol-4-yl)aniline trifluoroacetate]	1 to 5	1 to 5
Cc1cc(OCCN2CCN(C)CC2)c2nc(NCCN)n(Cc3cc(C)c(F)c(C)c3)c2c1 [Example 331, N^1-(1-(4-fluoro-3,5-dimethylbenzyl)-6-methyl-4-(2-(4-methylpiperazin-1-yl)ethoxy)-1H-benzo[d]imidazol-2-yl)ethane-1,2-diamine]	< 1	0.5 to 1
Cc1cc2c(nc(N3CCNCC3)n2Cc2ccc(F)c(C)c2)c(CN2CCCCC2)n1 [Example 235, 1-(4-fluoro-3-methylbenzyl)-6-methyl-2-(piperazin-1-yl)-4-(piperidin-1-ylmethyl)-1H-imidazo[4,5-c]pyridine]	30 to 100	> 5
Cc1cc2nc(N3CC(CN)C3)n(Cc3ccc(F)c(Cl)c3)c2cc1C [Example 288, (1-(1-(3-chloro-4-fluorobenzyl)-5,6-dimethyl-1H-benzo[d]imidazol-2-yl)azetidin-3-yl)methanamine]	< 1	1 to 5
Fc1ccc(Cn2c(N3CCNCC3)nc3ccc(Cl)cc32)cc1Cl [Example 73, 6-chloro-1-(3-chloro-4-fluorobenzyl)-2-(piperazin-1-yl)-1H-benzo[d]imidazole trifluoroacetate]	< 1	0.5 to 1
Clc1ccc(Cn2c(C3CCNCC3)nc3ccccc32)cc1 [Example 58, 1-(4-chlorobenzyl)-2-(piperidin-4-yl)-1H-benzo[d]imidazole trifluoroacetate]	5 to 30	> 5
Cc1cc(Cn2c(N3CCNCC3)nc3c(N4CCOCC4)cc(Cl)cc32)cc(C)c1F [Example 312, 4-(6-chloro-1-(4-fluoro-3,5-dimethylbenzyl)-2-(piperazin-1-yl)-1H-benzo[d]imidazol-4-yl)morpholine]	< 1	< 0.5
NC(CO)c1cc(Cl)cc2c1nc(N1CCNCC1)n2Cc1ccc(F)c(Cl)c1 (stereo not drawn) [Example 283, 2-amino-2-[6-chloro-1-[(3-chloro-4-fluorophenyl)methyl]-2-piperazin-1-ylbenzimidazol-4-yl]ethanol]	5 to 30	> 5
Cc1cc2c(nc(N3CCNCC3)n2Cc2ccc(F)c(C)c2)c(-c2cccnc2C)n1 [Example 227, 1-(4-fluoro-3-methylbenzyl)-6-methyl-4-(2-methylpyridin-3-yl)-2-(piperazin-1-yl)-1H-imidazo[4,5-c]pyridine]	1 to 5	> 5
Cc1cc(Cn2c(N3CCNCC3)nc3c(-c4ccc(CN)cc4)cc(Cl)cc32)cc(C)c1F [Example 122, (4-(6-chloro-1-(4-fluoro-3,5-dimethylbenzyl)-2-(piperazin-1-yl)-1H-benzo[d]imidazol-4-yl)phenyl)methanamine trifluoroacetate]	1 to 5	0.5 to 1
Cc1cc2nc(N3CCNCC3)n(Cc3ccc(F)c(C(F)(F)F)c3)c2cc1C [Example 40, 1-(4-fluoro-3-(trifluoromethyl)benzyl)-5,6-dimethyl-2-(piperazin-1-yl)-1H-benzo[d]imidazole trifluoracetate]	5 to 30	> 5
Cc1cc(Cn2c(N3CCNCC3)nc3c(OCCN4CCN(C)CC4)cccc32)ccc1F [Example 209, 1-(4-fluoro-3-methylbenzyl)-4-(2-(4-methylpiperazin-1-yl)ethoxy)-2-(piperazin-1-yl)-1H-benzo[d]imidazole]	< 1	> 5
Cc1cc(-c2ccccc2C)c2ncn(Cc3ccc(F)c(Cl)c3)c2c1 [Example 143, 1-(3-chloro-4-fluorobenzyl)-6-methyl-4-(o-tolyl)-1H-benzo[d]imidazole]	5 to 30	> 5
CC(C)n1nccc1-c1cc(Cl)cc2c1nc(N1CCNCC1)n2Cc1ccc(F)c(Cl)c1 [Example 176, 6-chloro-1-(3-chloro-4-fluorobenzyl)-4-(1-isopropyl-1H-pyrazol-5-yl)-2-(piperazin-1-yl)-1H-benzo[d]imidazole trifluoroacetate]	1 to 5	< 0.5
Cc1cc2nc(NCCN)n(Cc3cc(C)c(F)c(C)c3)c2cc1C [Example 42, N^1-(1-(4-fluoro-3,5-dimethylbenzyl)-5,6-dimethyl-1H-benzo[d]imidazol-2-yl)ethane-1,2-diamine trifluoroacetate]	1 to 5	1 to 5
Cc1cc(NCCCN(C)C)c2nc(N3CCNCC3)n(Cc3cc(C)c(F)c(C)c3)c2c1 [Example 197, N^1-(1-(4-fluoro-3,5-dimethylbenzyl)-6-methyl-2-(piperazin-1-yl)-1H-benzo[d]imidazol-4-yl)-N^3,N^3-dimethylpropane-1,3-diamine trifluoroacetate]	1 to 5	0.5 to 1
Cc1cc2nc(NCC3CNC3)n(Cc3ccc(F)c(Cl)c3)c2cc1C [Example 291, N-(azetidin-3-ylmethyl)-1-(3-chloro-4-fluorobenzyl)-5,6-dimethyl-1H-benzo[d]imidazol-2-amine]	< 1	1 to 5
Cc1cc(Cn2c(N3CCNCC3)nc3c(-c4ccccc4C#Cc4ccccc4Cl)cc(Cl)cc32)cc(C)c1F [Example 183, 6-chloro-4-(2-((2-chlorophenyl)ethynyl)phenyl)-1-(4-fluoro-3,5-dimethylbenzyl)-2-(piperazin-1-yl)-1H-benzo[d]imidazole trifluoroacetate]	1 to 5	0.5 to 1
Fc1ccc(Cn2c(C3CCNCC3)nc3ccccc32)cc1 [Example 56, 1-(4-fluorobenzyl)-2-(piperidin-4-yl)-1H-benzo[d]imidazole trifluoroacetate]	5 to 30	> 5
Cc1cc(CO)c2nc(N3CCNCC3)n(Cc3cc(C)c(F)c(C)c3)c2c1 [Example 280, [1-[(4-fluoro-3,5-dimethylphenyl)methyl]-6-methyl-2-piperazin-1-ylbenzimidazol-4-yl]methanol]	< 1	1 to 5
Cc1cc(Cn2c(NCCN)nc3c([C@@H](N)c4ccccc4)cc(Cl)cc32)cc(C)c1F [Example 160, (S)—N^1-(4-(amino(phenyl)methyl)-6-chloro-1-(4-fluoro-3,5-dimethylbenzyl)-1H-benzo[d]imidazol-2-yl)ethane-1,2-diamine trifluoroacetate]	1 to 5	< 0.5
Cc1cc(OCCN2CCN(C)CC2)c2nc(N3CCNCC3)n(Cc3cc(C)c(F)c(C)c3)c2c1 [Example 201, 1-(4-fluoro-3,5-dimethylbenzyl)-6-methyl-4-(2-(4-methylpiperazin-1-yl)ethoxy)-2-(piperazin-1-yl)-1H-benzo[d]imidazole]	< 1	0.5 to 1
CCc1cc2c(cc1C)nc(N1CCNCC1)n2Cc1ccc(F)c(CC)c1 [Example 67, 6-ethyl-1-(3-ethyl-4-fluorobenzyl)-5-methyl-2-(piperazin-1-yl)-1H-benzo[d]imidazole trifluoroacetate]	5 to 30	> 5
NCCc1cccc2c1nc(N1CCNCC1)n2Cc1ccc(F)c(Cl)c1 [Example 98, 2-(1-(3-chloro-4-fluorobenzyl)-2-(piperazin-1-yl)-1H-benzo[d]imidazol-4-yl)ethan-1-amine trifluoroacetate]	1 to 5	> 5
Cc1cc2nc(N3CCNC(=O)C3)n(Cc3cc(C)c(F)c(C)c3)c2cc1C [Example 332, 4-(1-(4-fluoro-3,5-dimethylbenzyl)-5,6-dimethyl-1H-benzo[d]imidazol-2-yl)piperazin-2-one]	5 to 30	> 5
Cc1cc(CN(C)C)c2ncn(Cc3ccc(F)c(Cl)c3)c2c1 [Example 145, 1-(1-(3-chloro-4-fluorobenzyl)-6-methyl-1H-benzo[d]imidazol-4-yl)-N,N-dimethylmethanamine trifluoroacetate]	30 to 100	> 5
NCCNc1nc2ccc(Cl)cc2n1Cc1ccc(F)c(Cl)c1 [Example 74, N^1-(6-chloro-1-(3-chloro-4-fluorobenzyl)-1H-benzo[d]imidazol-2-yl)ethane-1,2-diamine trifluoroacetate]	< 1	0.5 to 1
Fc1ccc(Cn2c(N3CCNCC3)nc3ccccc32)cc1 [Example 10, 1-(4-fluorobenzyl)-2-(piperazin-1-yl)-1H-benzo[d]imidazole trifluoroacetate]	30 to 100	> 5
Cc1cc2nc(NCCN)n(Cc3ccc(Cl)cc3)c2cc1C [Example 20, N^1-(1-(4-chlorobenzyl)-5,6-dimethyl-1H-benzo[d]imidazol-2-yl)ethane-1,2-diamine trifluoroacetate]	5 to 30	> 5
Cc1cnc2nc(NCCN)n(Cc3ccc(F)c(Cl)c3)c2c1 [Example 246, N^1-(1-(3-chloro-4-fluorobenzyl)-6-methyl-1H-imidazo[4,5-b]pyridin-2-yl)ethane-1,2-diamine]	1 to 5	1 to 5
